Legend:
[1] = molecular target: Stromelysin-1 (Homo sapiens, UniProt P08254); experiment: Inhibition of recombinant human matrix metalloprotease-3
[2] = molecular target: Matrix metalloproteinase-9 (Homo sapiens, UniProt P14780); experiment: Inhibition of recombinant human matrix metalloprotease-9
[3] = molecular target: T1, Interstitial collagenase (Homo sapiens, UniProt P03956); experiment: Inhibition of recombinant human matrix metalloprotease-1
T1 sequence (P03956 whole entry): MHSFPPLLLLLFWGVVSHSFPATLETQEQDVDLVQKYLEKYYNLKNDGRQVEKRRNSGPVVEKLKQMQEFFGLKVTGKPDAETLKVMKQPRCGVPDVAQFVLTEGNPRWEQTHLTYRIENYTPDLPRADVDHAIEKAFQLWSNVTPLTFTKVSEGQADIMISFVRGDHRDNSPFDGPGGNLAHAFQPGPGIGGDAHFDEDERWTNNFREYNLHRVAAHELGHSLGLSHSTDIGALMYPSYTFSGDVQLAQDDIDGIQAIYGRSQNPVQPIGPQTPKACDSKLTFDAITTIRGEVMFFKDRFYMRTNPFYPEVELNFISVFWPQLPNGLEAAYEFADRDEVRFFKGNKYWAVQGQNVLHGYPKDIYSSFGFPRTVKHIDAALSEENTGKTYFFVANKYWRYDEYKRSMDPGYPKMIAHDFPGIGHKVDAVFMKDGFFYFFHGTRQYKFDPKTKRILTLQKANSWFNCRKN

[4] = molecular target: T2, Disintegrin and metalloproteinase domain-containing protein 17 (Homo sapiens, UniProt P78536); experiment: Inhibition of recombinant human TNF-alpha converting enzyme (TACE)
T2 sequence (P78536 whole entry, the tested form may be a part): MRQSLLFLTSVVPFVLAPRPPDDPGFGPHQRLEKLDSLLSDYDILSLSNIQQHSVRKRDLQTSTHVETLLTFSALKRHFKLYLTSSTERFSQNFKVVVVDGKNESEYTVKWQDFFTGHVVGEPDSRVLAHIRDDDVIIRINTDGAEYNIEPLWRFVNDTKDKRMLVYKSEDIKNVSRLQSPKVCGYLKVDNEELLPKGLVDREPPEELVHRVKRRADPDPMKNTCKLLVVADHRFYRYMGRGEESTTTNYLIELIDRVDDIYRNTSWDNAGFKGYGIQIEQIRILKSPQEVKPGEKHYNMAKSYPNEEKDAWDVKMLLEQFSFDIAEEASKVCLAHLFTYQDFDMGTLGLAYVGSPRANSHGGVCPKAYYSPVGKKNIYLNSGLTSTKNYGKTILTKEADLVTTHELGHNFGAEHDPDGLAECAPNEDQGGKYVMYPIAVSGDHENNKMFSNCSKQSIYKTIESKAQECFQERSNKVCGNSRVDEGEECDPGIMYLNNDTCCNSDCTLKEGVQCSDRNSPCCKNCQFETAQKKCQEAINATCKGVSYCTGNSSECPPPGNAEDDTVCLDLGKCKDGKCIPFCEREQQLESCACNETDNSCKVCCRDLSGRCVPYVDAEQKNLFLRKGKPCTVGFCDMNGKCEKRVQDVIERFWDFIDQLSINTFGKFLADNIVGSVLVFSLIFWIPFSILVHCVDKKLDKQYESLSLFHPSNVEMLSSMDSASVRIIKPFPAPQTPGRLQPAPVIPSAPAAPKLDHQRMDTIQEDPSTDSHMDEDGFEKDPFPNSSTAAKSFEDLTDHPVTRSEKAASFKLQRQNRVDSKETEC

[5] = molecular target: T2, Disintegrin and metalloproteinase domain-containing protein 17; experiment: Inhibition of recombinant human TNF-alpha converting enzyme

Matrix metalloproteinase-9, sequence (P14780 whole entry): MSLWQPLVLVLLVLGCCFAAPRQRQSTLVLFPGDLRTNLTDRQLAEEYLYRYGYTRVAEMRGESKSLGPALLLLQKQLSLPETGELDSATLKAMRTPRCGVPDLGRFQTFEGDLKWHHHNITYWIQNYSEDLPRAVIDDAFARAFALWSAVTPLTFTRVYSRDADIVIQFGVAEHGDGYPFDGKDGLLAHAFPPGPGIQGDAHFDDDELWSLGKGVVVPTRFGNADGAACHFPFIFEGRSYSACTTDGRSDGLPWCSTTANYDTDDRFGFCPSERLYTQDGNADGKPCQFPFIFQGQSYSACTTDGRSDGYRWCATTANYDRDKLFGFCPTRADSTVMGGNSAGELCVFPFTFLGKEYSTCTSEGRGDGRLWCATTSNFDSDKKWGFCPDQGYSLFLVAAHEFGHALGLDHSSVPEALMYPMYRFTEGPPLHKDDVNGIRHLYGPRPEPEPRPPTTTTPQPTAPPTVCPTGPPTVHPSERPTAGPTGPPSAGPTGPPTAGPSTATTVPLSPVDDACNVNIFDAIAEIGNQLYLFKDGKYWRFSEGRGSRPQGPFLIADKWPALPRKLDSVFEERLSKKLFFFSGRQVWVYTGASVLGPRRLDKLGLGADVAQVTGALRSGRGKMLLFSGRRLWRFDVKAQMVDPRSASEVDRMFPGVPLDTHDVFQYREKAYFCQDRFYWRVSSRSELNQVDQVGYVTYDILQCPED
Stromelysin-1, sequence (P08254 whole entry): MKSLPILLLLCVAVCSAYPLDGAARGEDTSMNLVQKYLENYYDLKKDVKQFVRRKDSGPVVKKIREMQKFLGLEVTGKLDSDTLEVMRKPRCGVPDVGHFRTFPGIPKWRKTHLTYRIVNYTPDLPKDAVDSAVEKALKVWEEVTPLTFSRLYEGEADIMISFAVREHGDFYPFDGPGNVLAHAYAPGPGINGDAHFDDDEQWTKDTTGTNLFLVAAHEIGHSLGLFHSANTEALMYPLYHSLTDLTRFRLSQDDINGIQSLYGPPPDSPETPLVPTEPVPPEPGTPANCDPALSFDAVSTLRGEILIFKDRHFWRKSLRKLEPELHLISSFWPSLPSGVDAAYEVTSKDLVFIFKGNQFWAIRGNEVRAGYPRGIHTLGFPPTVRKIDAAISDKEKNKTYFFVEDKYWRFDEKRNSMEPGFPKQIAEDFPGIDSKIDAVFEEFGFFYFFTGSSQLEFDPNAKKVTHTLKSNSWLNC

Compound | Ki [1] [nM] | Ki [2] [nM] | Ki [3] [nM] | Ki [4] [nM] | Ki [5] [nM]
O=C(NO)[C@H]1[C@@H](O)[C@H](O)[C@@H](O)CN1S(=O)(=O)c1ccc(OC2CCCCC2)cc1 | 1.8 | 0.93 | 100 | 67 | –
CCOCCOc1ccc(S(=O)(=O)N2C[C@H](O)[C@@H](O)[C@H](O)[C@@H]2C(=O)NO)cc1 | 42 | 64 | > 850 | 8.7 | –
O=C(NO)[C@H]1[C@@H](O)[C@H](O)[C@@H](O)CN1S(=O)(=O)c1ccc(Oc2ccccc2)cc1 | 0.51 | – | 8 | – | 2.3
COc1ccc(S(=O)(=O)N2C[C@H](O)[C@@H](O)[C@H](O)[C@@H]2C(=O)NO)cc1 | – | – | 25 | 12 | –
COc1ccc(S(=O)(=O)N2C[C@@H](O)[C@H](O)[C@@H](O)[C@@H]2C(=O)NO)cc1 | – | – | 450 | 340 | –
COc1ccc(S(=O)(=O)N2C[C@H](O)[C@@H](O)[C@@H](O)[C@@H]2C(=O)NO)cc1 | – | – | – | 71 | –
O=C(NO)[C@H]1[C@@H](O)[C@H](O)[C@@H](O)CN1S(=O)(=O)c1ccc(OCc2ccccc2)cc1 | 2.6 | 6.1 | 850 | 1.6 | –
COc1ccc(S(=O)(=O)N2C[C@H](O)[C@H](O)[C@@H](O)[C@@H]2C(=O)NO)cc1 | – | – | > 850 | 510 | –

— ChEMBL document CHEMBL1144950, “Structure--activity relationships of azasugar-based MMP/ADAM inhibitors” (Bioorg Med Chem Lett, 2003)
